In paper PMC12977544, “Phenotypic high-throughput screening identifies modulators of gut microbial choline metabolism” (mBio, 2026):
≈ marks a conversion by molar mass, not a printed value. Like-named read-outs stand apart in the source and are kept apart here.

Key:
[1] = biological target: T1, purified CutC (choline trimethylamine-lyase) (Oleidesulfovibrio alaskensis, UniProt Q30W70); test: In vitro CutC activity assay coupled to YADH/NADH (absorbance 340 nm); type: biochemical, Desulfovibrio desulfuricans G20; details: 5 nM CutC, 200 µM choline, 20°C, anaerobic
T1 construct: made in house
T1 sequence (Q30W70 53-846): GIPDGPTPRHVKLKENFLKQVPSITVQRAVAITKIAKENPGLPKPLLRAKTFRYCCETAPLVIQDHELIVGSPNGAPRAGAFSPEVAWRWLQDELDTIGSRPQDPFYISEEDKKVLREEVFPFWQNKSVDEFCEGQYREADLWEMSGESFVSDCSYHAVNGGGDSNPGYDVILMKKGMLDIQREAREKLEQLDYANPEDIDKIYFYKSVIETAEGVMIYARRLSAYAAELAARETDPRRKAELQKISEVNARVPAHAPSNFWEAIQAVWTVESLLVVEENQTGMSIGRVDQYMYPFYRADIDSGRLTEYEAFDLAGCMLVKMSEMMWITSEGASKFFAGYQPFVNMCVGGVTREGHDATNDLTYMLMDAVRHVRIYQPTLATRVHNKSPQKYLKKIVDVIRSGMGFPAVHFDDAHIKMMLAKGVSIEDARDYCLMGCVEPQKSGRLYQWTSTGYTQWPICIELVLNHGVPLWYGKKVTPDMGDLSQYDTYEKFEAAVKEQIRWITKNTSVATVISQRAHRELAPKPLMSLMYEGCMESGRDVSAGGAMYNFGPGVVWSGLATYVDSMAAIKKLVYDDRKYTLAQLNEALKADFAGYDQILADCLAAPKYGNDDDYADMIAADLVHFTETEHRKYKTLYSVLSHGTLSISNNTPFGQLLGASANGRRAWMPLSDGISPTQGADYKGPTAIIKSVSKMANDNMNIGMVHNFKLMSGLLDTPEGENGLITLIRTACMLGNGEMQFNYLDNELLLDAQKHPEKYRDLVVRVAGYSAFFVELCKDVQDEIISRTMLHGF
Protocol: To investigate if our compounds were inhibiting CutC directly, we tested their activity toward the purified enzyme. The activity of CutC was determined using a coupled enzyme assay, where the acetaldehyde product from the cleavage of choline to TMA is reduced to ethanol by yeast alcohol dehydrogenase (YADH) using nicotinamide adenine dinucleotide (NADH) as a cofactor. The consumption of NADH results in a change in absorption at 340 nm, and this rate of change of absorption was used to calculate the initial rates of reaction of CutC in the presence of varying concentrations of inhibitors ([14], [65]).
CutC and CutD enzymes from Desulfovibrio desulfuricans G20 were purified, CutC was activated by incubation with CutD, and the amount of glycyl radical installation was quantified as previously described ([15]). The IC50 of compounds was determined in an in vitro CutC activity assay, where CutC activity is coupled to the NADH-dependent enzymatic reduction of acetaldehyde by YADH ([15]). Briefly, assays were conducted in an anaerobic chamber (MBraun) under N2 atmosphere at 20°C. In 50 mM potassium phosphate buffer (pH 8.0, 50 mM KCl), 40 µM of CutD and 150 µM of sodium dithionite were incubated for 20 min before the addition of 200 µM of SAM and 20 µM of CutC monomer. The mixture was incubated for 1 h to activate the glycyl radical enzyme, after which the activated CutC mixture was diluted […] in 50 mM potassium phosphate buffer (pH 8.0, 50 mM KCl). A master mix containing 200 µM NADH, 0.4 µM YADH (Sigma), and the diluted CutC mixture (5 nM final concentration in assay) was prepared and aliquoted into 96-well plates (180 µL per well). Ten microliters of inhibitor or DMSO vehicle was added, followed by 10 µL of aqueous choline chloride solution (final concentration 200 µM). Absorbance was measured at 340 nm immediately after addition of all assay components, with measurements taken every 20 s for 10 min. Initial rates were calculated from absorbance measurements and fitted to Michaelis–Menten equation using nonlinear regression in GraphPad Prism 10 (v. 10.4.0). Background activity was subtracted using no substrate controls, and initial rates for each inhibitor concentration were normalized to no inhibitor controls. IC50 values were obtained by plotting normalized activity values against the logarithm of inhibitor concentration and fitting to a nonlinear regression model in GraphPad Prism 10 (v. 10.4.0).

[2] = test system: Anaerococcus hydrogenalis DSM 7454; test: TMA inhibition in bacterial whole cells (LC–MS/MS of d9-TMA from d9-choline); type: cell-based; details: 1 mM d9-choline in PBS, 75 min, 37°C, anaerobic
Protocol: (§1) For TMA inhibition assays, E. coli and P. mirabilis were grown in NCE medium supplemented with 20 mM choline chloride, A. hydrogenalis was grown in MEGA medium supplemented with 3 mM choline chloride, and C. sporogenes was grown in BHI medium supplemented with 20 mM of choline chloride to induce expression of the cut gene cluster. For MIC assays, all bacteria strains were grown in MEGA medium.
(§2) Compounds were stored as 10 mM DMSO stocks at –20°C and diluted in DMSO to prepare varying concentrations of inhibitors for testing. Bacteria were grown anaerobically overnight in media supplemented with choline as described above. Cells were pelleted and resuspended in PBS, and d9-choline chloride was added to a final concentration of 1 mM. The final OD600 of the PBS cell resuspensions is as follows: 0.4 (E. coli), 0.15–0.2 (P. mirabilis), 0.2 (C. sporogenes), and 0.4 (A. hydrogenalis). The resuspended cells were added to 96-well plates containing inhibitors (final concentration of 1% DMSO, with final inhibitor concentrations ranging between 0 and 325 µM). The plates were sealed and incubated for 75 min (or 90 min for P. mirabilis) at 37°C. Following incubation, the plates were removed from the anaerobic chamber and analyzed immediately or kept at –20°C until LC–MS/MS analysis. Each inhibitor concentration was tested in triplicate. EC50 values were calculated with GraphPad Prism by fitting the log(inhibitor) vs response—Variable slope (four-parameter) model for non-linear regression.
(§3) Samples were kept frozen until analysis and kept cold on ice during handling due to the volatility of TMA. Bacterial cell resuspensions in PBS were diluted 100-fold in LCMS-grade acetonitrile with 0.1% formic acid to lyse cells, precipitate proteins, and extract metabolites. Samples were centrifuged at 4,000 rpm for 10 min at 4°C to pellet proteins. The supernatants were then further diluted 20-fold in LCMS-grade acetonitrile with 0.1% formic acid, and the resulting solution was analyzed by LC–MS/MS.
(§4) LC–MS/MS analysis was performed on an Agilent 1290/6470 Triple Quadrupole LC–MS instrument (Agilent Technologies) using electrospray ionization. The mass spectrometer was operated in multiple reaction monitoring (MRM) mode with positive ionization monitoring. The precursor–product ion pairs used in MRM mode were as follows: m/z 69.1m/z → 49.1 (d9-TMA) and m/z 113.2 m/z → 69.1 (d9-choline). The capillary voltage was set to 4.0 kV, and the fragmentor voltage was set to 30 V (d9-TMA) and 115 V (d9-choline). The collision energy for the precursor–product ion pairs was set to 29 V (d9-TMA) and 21 V (d9-choline). MS^1 resolution was set to wide and MS^2 resolution to unit. The drying gas temperature was maintained at 250°C, with a flow rate of 11 L/min and a nebulizer pressure of 45 psi. The time filter width used was 0.07 min. The injection volume of all samples was 1 μL. Samples were injected onto InfinityLab Poroshell 120 (Agilent) HILIC columns (2.7 μm, 100 mm × 2.1 mm, 100 Å) preceded by InfinityLab Poroshell 120 HILIC guard columns (2.1 mm, 1.9µm UHPLC guard). The LC conditions on the binary pump were as follows: a gradient of 5–35% A increasing over 1.95 min (1.2 mL/min), a gradient of 35–5% A decreasing over 0.05 min (1.6 mL/min), and held at 5% A for 0.5 min (2 mL/min). […] Solvent A was 10 mM ammonium formate with 0.1% formic acid, and solvent B was acetonitrile with 0.1% formic acid. Data analysis was performed with Mass Hunter Workstation Data Acquisition and Qualitative Analysis software (Agilent Technologies).

[3] = test system: Clostridium sporogenes ATCC 15579; test: as above; type: cell-based; details: 1 mM d9-choline in PBS, 75 min, 37°C, anaerobic
Protocol: as §1, §2, §3, §4

[4] = test system: Proteus mirabilis ATCC 29906; test: as above; type: cell-based; details: 1 mM d9-choline in PBS, 90 min, 37°C, anaerobic; for EC50: read-out: EC50 in whole cells, P. mirabilis (TMA inhibition)
Protocol: as §1, §2, §3, §4

E. coli MS 200-1 [5] = test: as above; type: cell-based, Escherichia coli MS 200-1; details: 1 mM d9-choline in PBS, 75 min, 37°C, anaerobic
Protocol: as §1, §2, §3, §4

[6] = test system: Anaerococcus hydrogenalis DSM 7454; test: MIC in MEGA medium; type: cell-based; details: anaerobic, 37°C, 24 h, up to 200 µM
Protocol: as §1

[7] = test system: Clostridium sporogenes ATCC 15579; test: MIC in MEGA medium; type: cell-based; details: anaerobic, 37°C, 24 h, up to 200 µM
Protocol: as §1

[8] = test system: Bacteroides thetaiotaomicron VPI-5482; test: MIC in MEGA medium; type: cell-based; details: anaerobic, 37°C, 24 h, up to 200 µM, read-out: MIC in MEGA medium, B. thetaiotaomicron
Protocol: as §1

[9] = test system: Bacteroides caccae ATCC 43185; test: MIC in MEGA medium; type: cell-based; details: anaerobic, 37°C, 24 h, up to 200 µM, read-out: MIC in MEGA medium, B. caccae
Protocol: as §1

[10] = test system: Bacteroides ovatus ATCC 8483; test: MIC in MEGA medium; type: cell-based; details: anaerobic, 37°C, 24 h, up to 200 µM, read-out: MIC in MEGA medium, B. ovatus
Protocol: as §1

[11] = test system: Proteus mirabilis ATCC 29906; test: MIC in MEGA medium; type: cell-based; details: anaerobic, 37°C, 24 h, up to 200 µM, read-out: MIC in MEGA medium, P. mirabilis
Protocol: as §1

[12] = test system: Collinsella aerofaciens ATCC 25986; test: MIC in MEGA medium; type: cell-based; details: anaerobic, 37°C, 24 h, up to 200 µM
Protocol: as §1

[13] = test system: Eubacterium rectale ATCC 33656; test: MIC in MEGA medium; type: cell-based; details: anaerobic, 37°C, 24 h, up to 200 µM; read-out: MIC in MEGA medium, E. rectale
Protocol: as §1

E. coli MS 200-1 [14] = test: MIC in MEGA medium; type: cell-based, Escherichia coli MS 200-1; details: anaerobic, 37°C, 24 h, up to 200 µM
Protocol: as §1

[15] = test system: panel of commensal bacterial strains; test: MIC against panel of nine gut commensal bacteria; details: of 9 bacterial strains tested
[16] = test system: choline-metabolizing gut bacteria (E. coli, P. mirabilis, C. sporogenes, A. hydrogenalis); test: TMA inhibition across the panel of four choline-metabolizing gut bacteria; type: cell-based; details: compared with compound 6
Source text: We then used secondary assays to prioritize scaffolds that had broad-spectrum TMA inhibitory activity against additional choline-metabolizing gut bacteria. For this, we used Clostridium sporogenes ATCC 15579, a human gut isolate that is able to efficiently ferment choline in addition to other carbon sources, as well as Anaerococcus hydrogenalis DSM 7454 and Proteus mirabilis ATCC 29906, human gut isolates previously identified to metabolize choline in vitro ([61]). In particular, E. coli MS 200-1 and C. sporogenes ATCC 15579 have been used in gnotobiotic studies to investigate the effects of bacterial choline metabolism on the host and microbiome ([46], [61], [62]). These strains are representative of taxa frequently detected in humans ([63]) and, together with E. coli, are representative of the major phyla and genera in which TMA producers have been detected across human gut isolates ([48]). Importantly, this group of strains included both gram-positive and gram-negative bacteria. Gram-negative bacteria have an additional outer membrane layer and associated efflux pumps ([29]), which typically decreases small molecule permeability compared to gram-positive bacteria. It also included bacteria with cut gene cluster architectures that differ in the number and types of microcompartment proteins encoded and in the size of the CutC enzyme ([48]). We hypothesized that testing the inhibitors against multiple choline-utilizing gut bacteria would increase the likelihood of identifying compounds with broad-spectrum activity.
as §2

Cc1ccc(-c2cc(C(=O)OCCCN3CCC(C)CC3)c(C)[nH]2)cc1C [Compound 28]
Purified CutC IC50 [1]: No inhibition | EC50 [2]: 11 µM | EC50 [3]: 18 µM | EC50 [4]: > 312 µM | EC50 (E. coli MS 200-1 [5]): 15 µM

Cc1cccc(-c2cc(C(=O)NCCCN3CCC(C)CC3)c(C)[nH]2)c1 [Compound 23]
IC50 [1]: 64 µM | EC50 [2]: 35 µM | EC50 [3]: 95 µM | EC50 [4]: 46 µM | MIC [6]: > 200 µM | MIC [7]: > 200 µM | MIC [8]: > 200 µM | MIC [9]: > 200 µM | MIC [10]: > 200 µM | MIC [11]: > 200 µM | MIC [12]: 200 µM (≈ 70.7 µg/mL) | MIC [13]: > 200 µM | EC50 (E. coli MS 200-1 [5]): 5 µM | MIC (E. coli MS 200-1 [14]): > 200 µM

Cc1ccc(-c2cc(C(=O)NCCCN3CCC(C)CC3)c(C)n2Cc2ccccc2)cc1C [Compound 19]
Bacterial strains with growth inhibited (MIC < 200 µM) [15]: five out of 9 | EC50 [3]: 4 µM | MIC [6]: 25 µM (≈ 11.4 µg/mL) | MIC [7]: > 200 µM | MIC [8]: 50 µM (≈ 22.9 µg/mL) | MIC [9]: > 200 µM | MIC [10]: 25 µM (≈ 11.4 µg/mL) | MIC [11]: > 200 µM | MIC [12]: 6.25 µM (≈ 2.86 µg/mL) | MIC [13]: 25 µM (≈ 11.4 µg/mL) | EC50 (E. coli MS 200-1 [5]): 28 µM | MIC (E. coli MS 200-1 [14]): > 200 µM

Cc1cc(-c2cc(C(=O)NCCCN3CCC(C)CC3)c(C)[nH]2)ccn1 [Compound 26]
IC50 [1]: 45 µM | EC50 in whole cells, A. hydrogenalis (TMA inhibition) [2]: No inhibition at 312 | EC50 in whole cells, C. sporogenes (TMA inhibition) [3]: No inhibition at 312 | EC50 [4]: > 312 µM | EC50 (E. coli MS 200-1 [5]): > 125 µM

Cc1ccc(-c2cc(C(=O)N(C)CCCN3CCC(C)CC3)c(C)[nH]2)cc1C [Compound 27]
IC50 [1]: 18 µM | EC50 [2]: 44 µM | EC50 [3]: 12 µM | EC50 [4]: > 312 µM | EC50 (E. coli MS 200-1 [5]): > 125 µM

Cc1[nH]ccc1C(=O)NCCCN1CCC(C)CC1 [Compound 20]
IC50 [1]: > 125 µM | EC50 in whole cells, A. hydrogenalis (TMA inhibition) [2]: No inhibition at 312 | EC50 in whole cells, C. sporogenes (TMA inhibition) [3]: No inhibition at 312 | EC50 in whole cells, P. mirabilis (TMA inhibition) [4]: No inhibition at 312 | EC50 (E. coli MS 200-1 [5]): > 125 µM

Cc1ccc(-c2cc(C(=O)NCCCCN3CCCCCC3)c(C)[nH]2)cc1C [Compound 44]
MIC ([6]; Anaerococcus hydrogenalis, DSM7454): > 200 µM | MIC ([7]; Clostridium sporogenes, ATCC15579): > 200 µM | MIC ([8]; Bacteroides thetaiotaomicron, VPI5482): > 200 µM | MIC ([9]; Bacteroides caccae, ATCC43185): > 200 µM | MIC ([10]; Bacteroides ovatus, ATCC8483): > 200 µM | MIC ([11]; Proteus mirabilis, ATCC29906): > 200 µM | MIC ([12]; Collinsella aerofaciens, ATCC25986): > 200 µM | MIC (E. coli MS 200-1 [14]; Escherichia coli, MS2001): > 200 µM

Cc1ccc(-c2cc(C(=O)NCCCN3CCOCC3)c(C)[nH]2)cc1C [Compound 37]
Purified CutC IC50 [1]: No inhibition

Cc1ccc(-c2cc(C(=O)NCCCN3CCC(C)CC3)c[nH]2)cc1C [Compound 7]
Fold reduction of potency across all four choline-metabolizing bacteria [16]: about 2 fold | EC50 [2]: 66 µM | EC50 [3]: 215 µM | EC50 [4]: 80 µM | EC50 (E. coli MS 200-1 [5]): 16 µM
